In the assay the test system is Saccharomyces cerevisiae. Briefly: Inhibition of Saccharomyces cerevisiae alpha-glucosidase at 100 uM using p-nitrophenyl alpha-Dglucopyranoside as substrate preincubated for 15 mins followed by substrate addition and measured after 20 mins relative to control.

The structures appear in SMILES notation.

As usually defined, the inhibition is the percentage by which the read-out fell short of the control. A higher inhibition goes with a response far below the control. Compound `C=C1CC[C@]2(C(=O)O)CC[C@]3(C)C(=CC[C@@H]4[C@@]5(C)C[C@@H](OC(=O)/C=C/c6ccc(O)cc6)[C@H](O)[C@@](C)(CO)[C@@H]5CC[C@]43C)[C@@H]2[C@H]1C` had an inhibition of 70.1%.

`C[C@H]1O[C@H](O[C@H]2[C@H](O)[C@@H](O)[C@@H](O[C@H]3[C@H](O)[C@@H](O)C(O)O[C@@H]3CO)O[C@@H]2CO)[C@H](O)[C@@H](O)[C@@H]1N[C@H]1C=C(CO)[C@@H](O)[C@H](O)[C@H]1O` (stereo partly specified) returned an inhibition of 72.8%. The value for `C[C@H]1[C@H](C)CC[C@]2(C(=O)O)CC[C@]3(C)C(=CC[C@@H]4[C@@]5(C)C[C@@H](O)[C@H](OC(=O)/C=C/c6ccc(O)c(O)c6)[C@@](C)(CO)[C@@H]5CC[C@]43C)[C@H]12` was 72.8%. Then `C[C@H]1[C@H](C)CC[C@]2(CO)CC[C@]3(C)C(=CC(=O)[C@@H]4[C@@]5(C)CC[C@H](O)C(C)(C)[C@@H]5CC[C@]43C)[C@H]12`, with 34.3%. Then `C[C@H]1[C@H](C)CC[C@]2(C(=O)O)CC[C@]3(C)C(=CC[C@@H]4[C@@]5(C)C[C@@H](OC(=O)/C=C/c6ccc(O)cc6)[C@H](O)[C@@](C)(CO)[C@@H]5CC[C@]43C)[C@H]12`, with 67.2%; and `C[C@H]1[C@H](C)CC[C@]2(C(=O)O)CC[C@]3(C)C(=CC[C@@H]4[C@@]5(C)C[C@@H](O)[C@H](O)[C@@](C)(COC(=O)/C=C\c6ccc(O)cc6)[C@@H]5CC[C@]43C)[C@H]12`, with 59%. The compound `C[C@H]1[C@H](C)CC[C@]2(C(=O)O)CC[C@]3(C)C(=CC[C@@H]4[C@@]5(C)C[C@@H](O)[C@H](O)[C@@](C)(COC(=O)/C=C/c6ccc(O)cc6)[C@@H]5CC[C@]43C)[C@H]12` yielded an inhibition of 67%.

In turn, `C=C1C=C[C@]2(C(=O)O)CC[C@]3(C)C(=CC[C@@H]4[C@@]5(C)C[C@@H](O)[C@@H](O)[C@@](C)(CO)[C@@H]5CC[C@]43C)[C@@H]2[C@H]1C` displayed an inhibition of 3%. The value for `C=C1CC[C@]2(C(=O)O)CC[C@]3(C)C(=CC[C@@H]4[C@@]5(C)C[C@@H](O)[C@H](O)[C@@](C)(CO)[C@@H]5CC[C@]43C)[C@@H]2[C@H]1C` was 13%.

Take `C=C1CC[C@]2(C(=O)O)CC[C@]3(C)C(=CC[C@@H]4[C@@]5(C)C[C@@H](O)[C@H](O)[C@@](C)(COC(=O)/C=C/c6ccc(O)cc6)[C@@H]5CC[C@]43C)[C@@H]2[C@H]1C`: the inhibition was 59.9%. Then `CO[C@@H]1C(O)=C2[C@@H]3[C@@H](C)[C@H](C)CC[C@]3(C)CC[C@@]2(C)[C@]2(C)CC[C@H]3C(C)(C)[C@@H](O)CC[C@]3(C)[C@@H]12`, with 23.9%; and `C=C1CC[C@]2(C(=O)O)CC[C@]3(C)C(=CC[C@@H]4[C@@]5(C)C[C@@H](O)[C@H](O)[C@@](C)(COC(=O)/C=C\c6ccc(O)cc6)[C@@H]5CC[C@]43C)[C@@H]2[C@H]1C`, with 38.8%; and `C=C1CC[C@]2(C(=O)O)CC[C@]3(C)C(=CC[C@@H]4[C@@]5(C)C[C@@H](O)[C@H](OC(=O)/C=C/c6ccc(O)cc6)[C@@](C)(CO)[C@@H]5CC[C@]43C)[C@@H]2[C@H]1C`, with 65.8%.

The compound `C=C1CC[C@]2(C(=O)O)CC[C@]3(C)C(=CC[C@@H]4[C@@]5(C)C[C@@H](O)[C@@H](O)[C@@](C)(CO)[C@@H]5CC[C@]43C)[C@@H]2[C@H]1C` showed an inhibition of 1.7%. Regarding `C[C@H]1[C@H](C)CC[C@]2(C(=O)O)CC[C@]3(C)C(=CC[C@@H]4[C@@]5(C)C[C@@H](O)[C@H](OC(=O)/C=C/c6ccc(O)cc6)[C@@](C)(CO)[C@@H]5CC[C@]43C)[C@H]12`, the inhibition came to 81.3%. The value for `C=C1CC[C@]2(C(=O)O)CC[C@]3(C)C(=CC[C@@H]4[C@@]5(C)C[C@@H](O)[C@H](OC(=O)/C=C\c6ccc(O)cc6)[C@@](C)(CO)[C@@H]5CC[C@]43C)[C@@H]2[C@H]1C` was 41.4%.

The values above are taken from ChEMBL document CHEMBL4616660, “Phenylpropanoid-Conjugated Triterpenoids from the Leaves of Actinidia arguta and Their Inhibitory Activity on α-Glucosidase” (J Nat Prod, 2020).
